Numbers after ± are expanded uncertainties.
What was measured:
[1] = 293.15 K, 101.33 kPa, Pycnometric method
[2] = refractive index (Na D-line) (dimensionless); conditions: 293.15 K; 101.33 kPa; Crystal; Standard Abbe refractometry

mass density ([1]; Crystal) [kg/m3]	refractive index [2]	mass density ([1]; Liquid) [kg/m3]	SMILES
1527 ± 12	1.638 ± 0.0008		Cl.N [ammonium chloride (NH4Cl)]
		810 ± 12	CCCCO [butan-1-ol]

From the NIST ThermoML archive (doi:10.1016/j.fluid.2014.06.023)
